The values that follow are results of earlier work, collected in patent US7723036B2, “Assessing response to anti-CD20 therapy by genotyping C1q components” (The University of Iowa Research Foundation, priority 2005, dated 2010).

Structures can show the parent of a compound that is named as a salt.

The conditions of data set [1]: in vivo.
The conditions of data set [2]: oral radioactive lomustine 30 mg/m^2 to 100 mg/m^2; within 24 hours.
The conditions of data set [3]: in vivo. The source holds these as a separate data set.

Regarding `O=C(O)CCCc1ccc(N(CCCl)CCCl)cc1` [Chlorambucil, 4-(bis(2-chlorethyl)amino) benzenebutanoic acid], in data set [1], the “oral absorption (in words)” value is “rapidly and completely absorbed”.

Turning to `N.N.[Cl][Pt][Cl]` [Cisplatin], in data set [1], the “oral absorption (in words)” value is listed as “not absorbed orally”.

`COc1cccc2c1C(=O)c1c(O)c3c(c(O)c1C2=O)C[C@@](O)(C(C)=O)C[C@@H]3O[C@H]1C[C@H](N)[C@H](O)[C@H](C)O1` [Daunorubicin, 5,12-Naphthacenedione, (8S-cis)-8-acetyl-10-((3-amino-2,3,6-trideoxy-a-L-lyxo-hexanopyranosyl)oxy)-7,8,9,10-tetrahydro-6,8,11-trihydroxy-10-methoxy-, hydrochloride]: the “oral absorption (in words)” value in data set [1] is “poor”. For the compound `COc1cccc2c1C(=O)c1c(O)c3c(c(O)c1C2=O)C[C@@](O)(C(=O)CO)C[C@@H]3O[C@H]1C[C@H](N)[C@H](O)[C@H](C)O1` [Doxorubicin, 5,12-Naphthacenedione, (8s-cis)-10-((3-amino-2,3,6-trideoxy-a-L-lyxo-hexopyranosyl)oxy)-7,8,9,10-tetrahydro-6,8,11-trihydroxy-8-(hydroxyacetyl)-1-methoxy-hydrochloride], the “oral absorption (in words)” value in data set [1] is reported as “absorbed poorly”. With `O=NN(CCCl)C(=O)NC1CCCCC1` [Lomustine, 1-(2-chloro-ethyl)-3-cyclohexyl-1 nitrosourea], the “radioactivity given excreted in the form of degradation products” value in data set [2] is on record as “about half”. `CC[C@]1(O)C[C@@H]2CN(CCc3c([nH]c4ccccc34)[C@@](C(=O)OC)(c3cc4c(cc3OC)N(C)[C@H]3[C@@](O)(C(=O)OC)[C@H](OC(C)=O)[C@]5(CC)C=CCN6CC[C@]43[C@@H]65)C2)C1` [Vinblastine]: in data set [1], the “oral absorption (in words)” value is “Unpredictable absorption”. Further, in data set [3], the “administered dose recovered in the feces after biliary excretion” value was “about 10%”. With `CC[C@]1(O)C[C@H]2CN(CCc3c([nH]c4ccccc34)[C@@](C(=O)OC)(c3cc4c(cc3OC)N(C=O)[C@H]3[C@@](O)(C(=O)OC)[C@H](OC(C)=O)[C@]5(CC)C=CCN6CC[C@]43[C@@H]65)C2)C1` [Vincristine], in data set [1], the “oral absorption (in words)” value is given as “Unpredictable absorption”.
